# Results from US20060094790A1, “Use of sphingosine kinase activator as skin disease treating agent and method for treating skin diseases using the same” (priority 2004, published 2006).
# Assays:
# [1] = tested on: RBL-2H3 cell line; assay: Intracellular calcium movement (fura-2 fluorescence); format: cell-based; conditions: RBL-2H3 cells, fura-2, FIGS. 1a to 1d
# Method: First, the following experiment for calcium movement was performed in order to determine whether the above sphingosine kinase activator compounds activate sphingosine-1-phosphate, so as to cause intracellular calcium movement, which is a typical activity specific to sphingosine-1-phosphate.
# The sphingosine kinase activator compounds were determined for capability of inducing intracellular calcium movement by using a RBL-2H3 cell line, which is one of the typical cell lines showing intracellular calcium movement. The cells are cultured by using an RPMI 1640 culture medium and the cells were washed simultaneously with removal of the medium. Then, 10 μM of fura-2/Am and 250 μl M of sulfinpyrazone were added thereto, followed by incubation for 30 minutes. Cell pellets were obtained by centrifugal separation and the cell pellets were dispersed in Ca^2+-free Locke's solution. The dispersion was divided into a unit of 1×10^6 cells for use in treating samples. Next, the cells were introduced into a cuvet of a fluorescence microscope, each sphingosine kinase activator compound was added thereto, and intracellular calcium movement was observed by the fluorescence microscope (RF-5310PC, Spectrofluoro photometer, SHIMADZU). When intracellular calcium ions are detected, they cause fluorescence by bonding with fura-2. Therefore, a degree of calcium movement caused by a sample was evaluated by calculating a difference between the measurement of fura-2 ([…]) bonded with calcium and that of non-bonded fura-2 ([…]).
# [2] = target: T1, sphingosine kinase (Mus musculus, UniProt Q8CI15); assay: Activation of sphingosine kinase (C17-sphingosine-1-phosphate production, HPLC); format: cell-based; conditions: F9-12 cells, 24 hours, 50 μM compound, PMA 300 nM
# T1 construct: host or cells: F9-12 cells
# Method: The following test for activation of sphingosine kinase was performed to determine whether the effects of the above compounds upon intracellular calcium signal transfer as described in Example 1 were caused by activation of sphingosine kinase.
# F9-12 cells were treated with 300 nM of PMA ([…]) as positive control, and 50 μM of each of K6PC4 and K6PC-5 for 24 hours and collected. Then, activity of sphingosine kinase was measured as production of C17-sphingosine-1-phosphate based on 50 μg of protein. Sphingosine-1-phospate was extracted from the collected cells by the steps of: (1) treating with trypsin-EDTA, (2) centrifugal separation at 1,500 rpm for 10 minutes, and (3) washing with PBS, followed by freeze-drying. Then, PBS was added to the freeze-dried product and the resultant product was treated with ultrasonic waves to destroy cells. Sphingosine-1-phosphate was determined by HPLC, and OPA (o-phthalaldehyde) reagent and boric acid buffer were added to the extracted sample and the mixture was reacted at room temperature for 20 minutes. For the HPLC quantitive analysis, fluorescence intensity was measured at each wavelength of 340 nm and 455 nm with a solution in 90% acetonitrile, and a ratio to the internal standard was calculated.
# [3] = tested on: fibroblasts; assay: Collagen synthesis in fibroblasts (PICP, collagen measuring kit); format: cell-based; conditions: 72 hours; for Amount of PICP produced in fibroblasts (average ± SEM): non-treated control 47.1 ± 9.7
# Method: The following experiment was performed by using fibroblasts in order to evaluate the effect of sphingosine kinase activator upon collagen synthesis.
# Each of K6PC4, K6PC-5, K6PC-7 and K6PC-9 was dissolved in DMSO at a concentration of 0.3 and 1.0 μg/ml. The solutions were used as samples and analyzed for collagen synthesis after incubation for 72 hours. 72 hours after the treatment of the sample, culture solution was discarded, cells were washed with serum-free DMEM three times, and cells were cultured again by using flesh serum-free DMEM. After incubation, supernatant in each well was combined and analyzed for the amount of PICP (procollagen type I C-peptide) by using a collagen measuring kit. The standard solution contained in the collagen measuring kit was diluted with a sample and absorption at 450 nm was measured to construct a standard concentration curve (see the following Table 2).
# To an antibody-coated microtiter plate comprising a primary collagen antibody applied unifomrily thereto, 100 μl of an antibody-POD conjugate solution and the cell supernatant collected as described above were added, followed by incubation at 37° C. for 3 hours, to induce an antigen-antibody reaction. Then, the reaction mixture was subjected to washing and color developing. After the reaction, the reaction mixture developed a yellow color, wherein the yellowness depended on reaction degrees. Also, 96 well plates developing a yellow color were determined at 450 nm by using a microtiter plate reader.
# [4] = tested on: keratinocytes; assay: Differentiation of keratinocytes (western blotting of involucrin and keratin-1); format: cell-based; conditions: 10 μM, 48 hours, FIG. 2
# Method: In order to evaluate the effect of the above compound according to the present invention upon differentiation of keratinocytes, each of K6PC4, K6PC-5, K6PC-7 and K6PC-9 was dissolved in DMSO at a concentration of 10 μM and used as sample. Evaluation was performed by using the western blotting method. As differentiation markers, involucrin and keratine-1, which were differentiation markers of keratinocytes, were measured. Next, 48 hours after the treatment of samples, the culture solution was discarded and the cells were washed with PBS and collected by filtering. The collected cells were washed again and subjected to centrifugal separation to remove supernatant. The cells were dissolved in a solvent and subjected to centrifugal separation at 12,000 rpm for 10 minutes, thereby removing cell membranes, etc. Protein concentration was determined by the Bradford method. Proteins were separated by mini gel type SDS-PAGE (polyacrylamide gel electrohoresis) and transferred to a PVDF (polyvinylidene fluoride) membrane at 100V for 1 hour, so that gel-like proteins were subjected to blotting with a transfer membrane. Then, the membrane was colored with Ponceau S solution to determine whether transfer was accomplished or not. The membrane was blocked by using TTBS (TBS+0.1% Tween 20) solution containing 5% non-fat dried milk. In order to check the amount of involucrin as differentiation marker of keratinocytes, primary antibody involucrin (Neomarkers Co.) was diluted at a ratio of about 1/200 to 1.400, and keratin-1 (Covance Co.) was diluted at a ratio of about 1/1000. Reactions were performed overnight at 4° C. As secondary antibody, anti-mouse IgG and anti-rabbit IgG combined with horseradish peroxidase (HRP) was diluted at a ratio of 1:2000. Then, the secondary antibody was bonded to the primary antibody by making them react at room temperature for 1 hour. The membrane was washed with TTBS three times, reacted with an ECL substrate (Amersham Co.) for 1-3 minutes, and exposed to X-ray films.
# [5] = tested on: rats; conditions: rat, in vivo
# Method: (§1) Those tests were performed based on “Toxicity Test Standards for Pharmaceutical Products” disclosed by the Korea Food & Drug Administration.
# [6] = tested on: guinea pigs; conditions: guinea pig, in vivo
# Method: as §1
# [7] = tested on: rabbits; conditions: rabbit, in vivo
# Method: as §1
# [8] = tested on: human subjects
# Method: In this example, effects of improving wrinkles were evaluated in 32 subjects (average age: 46.7). During the total period of 8 weeks, a cream containing 1% of K6PC-5 and cream containing no K6PC-5 (control) were applied around both eye rims and then instrumental evaluation was performed. A silicone replica for the eye tail part of a subject was formed, and the replica was irradiated with light at an angle. Then, a shading degree formed by wrinkles in the replica was photographed by a CCD camera, and the image was determined for a wrinkling degree by using a computer image analysis system. More particularly, a program of Skin Visiometer SV 600 available from C+K Co. (Germany) was used for determination, wherein wrinkle parameters are expressed as R1 through R5 values. R1, R2 and R3 represent deep wrinkles and R4 and R5 represent shallow wrinkles.
# T1 sequence (Q8CI15 1-381 isoform Q8CI15-3): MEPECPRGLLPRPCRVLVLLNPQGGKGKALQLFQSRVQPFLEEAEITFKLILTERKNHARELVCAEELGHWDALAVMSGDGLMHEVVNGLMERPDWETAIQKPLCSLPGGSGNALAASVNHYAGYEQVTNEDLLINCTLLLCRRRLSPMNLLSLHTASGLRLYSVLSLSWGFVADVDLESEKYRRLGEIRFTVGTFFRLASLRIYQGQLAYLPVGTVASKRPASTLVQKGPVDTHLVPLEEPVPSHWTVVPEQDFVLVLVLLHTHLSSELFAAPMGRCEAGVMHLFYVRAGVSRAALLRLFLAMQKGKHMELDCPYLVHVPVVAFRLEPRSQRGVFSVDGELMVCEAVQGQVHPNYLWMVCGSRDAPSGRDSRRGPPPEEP
structure (smiles),measurement,setting,value
"CCCCCCCC(=O)C(CCCCCC)C(=O)NC(CO)CO (stereo not drawn) [K6PC-5, N-(1,3-dihydroxyisopropyl)-2-hexyl-3-oxo-decanamide]",intracellular calcium movement,[1],caused intracellular calcium movement
same,C17-SIP Production,[2]; non-treated control 51.72,75.59 pmol/min/mg
same,increase in production of sphingosine-1-phosphate,[2]; versus non-treated control,about 46%
same,Amount of PICP produced in fibroblasts (average ± SEM),[3]; 0.3 μg/ml,111.2 ± 3.9
same,Amount of PICP produced in fibroblasts (average ± SEM),[3]; 1.0 μg/ml,96.0 ± 5.6
same,collagen synthesis increase as compared to the non-treated control,"[3]; fibroblasts, 0.3 or 1.0 μg/ml (concentration not given)",about 2.4 times
same,"expression of differentiation markers (involucrin, keratin-1)",[4],expressed the differentiation markers
same,Single dose oral toxicity test result,[5],No irritation
same,Skin sensitization test result,[6],No irritation
same,Ophthalmic mucous membrane irritation test result,[7],No irritation
same,improvement in the condition of wrinkles around the eye,"[8]; cream containing 1% of K6PC-5, 8 weeks, versus control cream, P<0.05 t-test",statistically significant improvement in the condition of wrinkles
same,skin irritation or hypersensitive reaction (inspection of dermatologists),"[8]; human, in vivo",no skin irritation or hypersensitive reaction
